This test deals with acetyl-CoA carboxylase (ACC, POD-2) (Caenorhabditis elegans, UniProt H2L0M0). The experiment in a line: real-time HPLC and NMR kinetics of malonyl-CoA formation with partially purified enzyme extract; Ki estimated from the change in KM. In kind it is biochemical.

Structures are written as SMILES.

Chain of acetyl-CoA carboxylase (ACC, POD-2) (H2L0M0 entry or part of it): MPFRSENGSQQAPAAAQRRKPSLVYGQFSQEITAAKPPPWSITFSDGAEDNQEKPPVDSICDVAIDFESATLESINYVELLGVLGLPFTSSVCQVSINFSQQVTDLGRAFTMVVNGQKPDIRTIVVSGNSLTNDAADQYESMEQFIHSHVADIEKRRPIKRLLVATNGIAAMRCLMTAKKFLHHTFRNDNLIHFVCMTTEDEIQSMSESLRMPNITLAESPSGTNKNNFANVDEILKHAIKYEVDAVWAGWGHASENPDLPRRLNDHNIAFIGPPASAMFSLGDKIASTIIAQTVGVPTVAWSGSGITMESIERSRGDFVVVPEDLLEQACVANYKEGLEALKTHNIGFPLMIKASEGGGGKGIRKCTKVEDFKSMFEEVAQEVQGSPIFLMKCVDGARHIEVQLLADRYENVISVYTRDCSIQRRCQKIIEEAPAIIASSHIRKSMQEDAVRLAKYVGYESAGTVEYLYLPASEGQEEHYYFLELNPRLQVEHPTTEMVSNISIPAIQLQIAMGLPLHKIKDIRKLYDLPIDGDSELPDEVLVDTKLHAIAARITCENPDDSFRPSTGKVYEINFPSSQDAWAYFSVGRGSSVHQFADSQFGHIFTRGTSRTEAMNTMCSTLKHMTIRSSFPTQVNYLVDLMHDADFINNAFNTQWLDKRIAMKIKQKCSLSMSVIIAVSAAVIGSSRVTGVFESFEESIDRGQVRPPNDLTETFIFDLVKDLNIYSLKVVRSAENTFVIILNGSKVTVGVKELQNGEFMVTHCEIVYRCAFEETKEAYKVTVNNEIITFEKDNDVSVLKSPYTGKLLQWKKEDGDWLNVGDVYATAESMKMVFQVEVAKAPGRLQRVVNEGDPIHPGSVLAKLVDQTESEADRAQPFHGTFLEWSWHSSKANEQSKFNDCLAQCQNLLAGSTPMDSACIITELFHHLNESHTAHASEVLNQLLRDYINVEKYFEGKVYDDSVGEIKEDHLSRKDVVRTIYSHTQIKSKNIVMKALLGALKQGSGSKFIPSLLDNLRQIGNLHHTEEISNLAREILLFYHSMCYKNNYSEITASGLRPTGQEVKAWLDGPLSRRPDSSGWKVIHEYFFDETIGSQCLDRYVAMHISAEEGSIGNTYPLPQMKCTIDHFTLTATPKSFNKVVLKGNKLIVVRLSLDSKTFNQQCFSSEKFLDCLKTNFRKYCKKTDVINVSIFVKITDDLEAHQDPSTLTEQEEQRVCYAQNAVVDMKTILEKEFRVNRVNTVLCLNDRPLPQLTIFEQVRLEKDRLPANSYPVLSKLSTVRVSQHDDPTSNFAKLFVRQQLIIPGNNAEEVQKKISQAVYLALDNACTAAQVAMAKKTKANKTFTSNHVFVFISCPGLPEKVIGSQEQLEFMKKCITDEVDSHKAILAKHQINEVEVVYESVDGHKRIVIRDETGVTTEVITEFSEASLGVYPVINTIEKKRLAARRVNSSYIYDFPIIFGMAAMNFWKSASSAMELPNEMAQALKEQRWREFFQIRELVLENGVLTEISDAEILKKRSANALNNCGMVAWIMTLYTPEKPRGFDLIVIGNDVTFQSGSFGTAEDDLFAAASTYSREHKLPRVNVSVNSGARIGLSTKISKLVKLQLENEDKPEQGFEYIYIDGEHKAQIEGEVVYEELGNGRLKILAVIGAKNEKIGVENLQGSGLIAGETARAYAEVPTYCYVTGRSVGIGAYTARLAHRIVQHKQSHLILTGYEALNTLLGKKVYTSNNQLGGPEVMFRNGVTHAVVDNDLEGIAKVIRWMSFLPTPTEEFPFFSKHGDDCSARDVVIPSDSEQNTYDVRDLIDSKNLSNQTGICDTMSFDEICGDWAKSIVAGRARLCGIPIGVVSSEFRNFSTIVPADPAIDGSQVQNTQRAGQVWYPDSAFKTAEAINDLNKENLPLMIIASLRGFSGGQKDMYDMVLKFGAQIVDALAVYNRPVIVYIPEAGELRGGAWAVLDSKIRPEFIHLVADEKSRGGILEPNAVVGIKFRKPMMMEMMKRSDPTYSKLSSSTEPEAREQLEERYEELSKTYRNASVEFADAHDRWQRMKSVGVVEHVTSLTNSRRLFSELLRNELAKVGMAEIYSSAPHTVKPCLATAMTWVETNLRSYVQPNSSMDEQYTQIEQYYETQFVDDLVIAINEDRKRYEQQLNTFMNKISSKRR

Broadly, the Ki is a dissociation constant, usually derived from enzyme kinetics or from competition with a known ligand. `C=CCCCCCCCCCCC[C@@H](O)C[C@@H](O)COC(C)=O` [avocadene acetate]: the Ki is around 12.5 µM.

(Values after paper PMC12435777, “Assessing Acetyl-Coenzyme A Carboxylase Activity and Inhibition in Caenorhabtidis elegans Using a Partially Purified Protein Extract” (Analytical Chemistry, 2025).)
